Results reported in US20090274738A1, “IMPLANTABLE DEVICES FOR PROMOTING REENDOTHELIALIZATION AND METHODS OF USE THEREOF” (priority 2008, published 2009).

Columns and labels:
[1] = tested on: foetal bovine aortic endothelial cell; details: cited from earlier work
[2] = type: in vivo
Description: Tissue samples and stents were analyzed for each animal for estrogen content. The right coronary artery (RCA) and the left anterior descending artery (LAD) were opened longitudinally and cut into 6 pieces; 2 in the proximal region, 2 in the medial region and 2 in the distal region of the stented segment. One piece in each region was analyzed and the other one was kept as a backup. To evaluate the migration of E2 through the arterial wall, the left circumflex artery (LCX) was dissected to separate the adventitia from the rest of the artery and the two fractions were analyzed individually. […] After centrifugation, sera were collected for extraction and analysis by GC/MS.
Hormones Deuterium-labeled estradiol 2,4,16,16,17-D5 (17β-D5) (CDN Isotopes, Pointe Claire, Canada) and micronized estradiol (USP, Xenex labs, Coquitlam, Canada) were used respectively as internal and external controls.
Extraction of steroids—17β-estradiol extraction in pig serum. Blood samples of 8.5 mL were collected at specific time from each animal in the coronary sinus using an 8 French guiding catheter at baseline, 10 min and 1 hr after stent implantation and at sacrifice. Samples were centrifuged at 1800 rpm at 4° C. for 10 minutes. […]
Estrogen quantification data Estrogen quantification was performed by Gas Chromatography/Mass Spectroscopy (GC/MS) as described above. Diffusion of E2 from the stent was determined in tissue in direct contact with the stent (coronary tissues proximal, medial, distal (see FIG. 9)), in close proximity (reference proximal, reference distal, adventitia, peri-coronary muscle, peri-coronary white fat (see FIG. 10)) or at distal sites potentially exposed to E2 released from the stent into the blood (carotid artery, femoral artery, apex, auricle, lung, kidney and liver). To obtain the total amount of E2 in an artery, E2 content measured by GC/MS in the proximal, medial and distal portions of each stented coronary segment were added together. […] The E2 content of the total adventitia dissected from each RCA was also determined.

[3] = Tissue uptake of estradiol administered locally with a catheter; type: in vivo; details: 10 mg administered with a catheter over a few seconds
Description: Stents and hormone used for the procedures The polymer poly (ester-amide) (PEA)/estradiol (E2) stents used in Examples presented herein were prepared by MicroPort (MicroPort Medical Co, Ltd. Shanghai). Stainless steel bare metal stents were of 18 mm and 23 mm length and were spray coated by MicroPort with 300 μg or 500 μg of E2 matrixed with MediVas™ poly (ester-amide) (MVPEA.I.(Ac)) tempo polymer. […] The sizes of Cypher™ stents were; 3×18 mm, 3.5×18 mm, 3×23 mm, 3.5×23 mm (Johnson & Johnson). The sizes of Taxus™ stents were 2.25×12 mm, 3×16 mm, 3.5×16 mm, 3×24 mm, 3.5×24 mm (Boston Scientific). The estradiol (USP) used to load the polymer poly (ester-amide) (PEA)/E2 stents was bought from Xenex labs (Coquitlam, Canada) and send to Microport. The estradiol used for local delivery by catheter in the objective 2 was the water soluble form coupled with hydroxypropyl-heta-cyclodextrin (HPCD).

[4] = tested on: endothelial progenitor cell; details: cited from earlier work

In the case of `C[C@]12CC[C@@H]3c4ccc(O)cc4CC[C@H]3[C@@H]1CC[C@@H]2O` [estradiol, 17-β-Estradiol], the “concentration at which enhancement of foetal bovine aortic endothelial cell growth was lost” value [1] is listed as at least 100 nM, the “penetration of estradiol through the arterial wall” value ([2]; detected in adventitia, peri-coronary muscle and white fat tissues) is listed as “deep penetration” and the “mean concentration of estradiol in coronary tissue” value ([2]; first 48 hours, 500 μg E2 stent) is listed as 12.0 μg/g of tissue. For the same molecule, the “E2 concentration in tissues at distal location from stent” value ([2]; in vivo) was “at baseline level”, the “amount in the tissue overall” value [3] was 51 µg and the “fraction of dose up-taken by the tissue” value [3] was 0.51%. For the same molecule, the “concentration with strong negative effect on endothelial progenitor cell growth” value [4] was at least 10 µM.
